Tests used:
[1] = tested on: BPLER cells; assay: Secondary (cherry-pick) screen with the 4 individual siRNAs of each pool; conditions: for Cherry_Score: secondary cherry-pick screen, 4 individual siRNAs of each pool
[2] = tested on: HMLER cells; assay: Genome-wide siRNA lethality screen (primary screen), CellTiterGlo viability; format: cell-based, human; conditions: for Fold_HMLER / MAD_HMLER: primary screen, HMLER cells; for MAD_HMLER: MAD score; for MAD HMLER: MAD score of viability in HMLER cells; for Fold HMLER: fold viability in HMLER cells
[3] = tested on: BPLER cells; assay: as above; format: cell-based, human; conditions: for Ratio: R, BPLER versus HMLER, primary screen; for MAD BPLER / Fold BPLER: siRNA pool against the gene; for MAD BPLER: MAD score of viability in BPLER cells; for Fold BPLER: fold viability in BPLER cells
[4] = validation screen with individual siRNAs of each pool
[5] = secondary screen with the 4 individual siRNAs of each pool
[6] = siRNA pool against the gene, fold viability
[7] = ratio of Fold_BPLER to Fold_HMLER
[8] = ratio of fold viability BPLER/HMLER

Substance	Cherry Score [1, 4]	Fold_HMLER ([2]; siRNA pool)	Ratio [3]	Cherry_Score [1]	Cherry Score [1, 5]	MAD_HMLER ([2]; siRNA pool against the gene)	Fold_HMLER [2, 6]	MAD HMLER ([2]; siRNA pool against the gene)	Fold HMLER ([2]; siRNA pool against the gene)	Ratio BPLER/HMLER [3, 7]	Ratio BPLER/HMLER [3, 8]	MAD BPLER [3]	Fold BPLER [3]
NM_032425	2	0.77	0.73	–	–	–	–	–	–	–	–	–	–
NM_032916	2	0.70	0.70	–	–	–	–	–	–	–	–	–	–
NM_052946	1	0.90	0.67	–	–	–	–	–	–	–	–	–	–
NM_080730	1	0.99	0.72	–	–	–	–	–	–	–	–	–	–
NM_134444	1	1.01	0.69	–	–	–	–	–	–	–	–	–	–
NM_148571	1	0.81	0.73	–	–	–	–	–	–	–	–	–	–
NM_152374	2	0.97	0.72	–	–	–	–	–	–	–	–	–	–
NM_152496	1	0.64	0.72	–	–	–	–	–	–	–	–	–	–
NM_152655	2	0.89	0.72	–	–	–	–	–	–	–	–	–	–
NM_152905	1	1.08	0.67	–	–	–	–	–	–	–	–	–	–
NM_198080	1	0.85	0.67	–	–	–	–	–	–	–	–	–	–
NOSTRIN	–	–	–	1	1	−0.69	0.90	−0.69	0.90	0.67	0.67	−2.06	0.604
NUP205	–	–	–	3	3	−1.57	0.75	−1.57	0.75	0.73	0.73	−2.88	0.544
PCBP3	–	–	–	1	1	0.15	1.02	0.15	1.02	0.71	0.71	−1.69	0.727
PDCD4	–	–	–	1	1	−2.25	0.63	−2.25	0.63	0.73	0.73	−2.81	0.462
PDE6C	–	–	–	1	1	−0.33	0.95	−0.33	0.95	0.66	0.66	−1.98	0.621
